Source: the Deep4Chem optical property database
Where “and” joins values, the source holds several entries; their conditions need not be identical. Equal entries are not always repeated. Blank lines part the entries; values can stand above or below the compound they belong to.

Test: solvent given as SMILES

SMILES: C#Cc1ccc2cc3c(C)cc(=O)oc3cc2c1
emission maximum (in CCO): 437 nm

SMILES: c1ccc(-c2nc(-c3ccccc3)n3ccccc23)cc1
emission maximum (in C1CCCCC1): 445 nm | emission maximum (in CC#N): 478 nm | emission maximum (in CO): 477 nm | emission maximum (in ClC(Cl)Cl): 454 nm | emission maximum (in ClCCl): 484 nm | emission maximum (in O): 479 nm

SMILES: COc1cc(-c2cc(-c3ccc(C)cc3)nc3c(C#N)c(N4CCCC4)nc(N)c23)cc(OC)c1OC
emission maximum (in CC#N): 525 nm | emission maximum (in CC(C)=O): 521 nm | emission maximum (in CC(C)O): 513 nm | emission maximum (in CO): 526 nm | emission maximum (in ClC(Cl)Cl): 509 nm | emission maximum (in ClCCl): 515 nm | emission maximum (in c1ccccc1): 508 nm

SMILES: Cc1cscc1-c1cc2c3cc(-c4cscc4C)c4nc(C(F)(F)C(F)(F)C(F)(F)F)nc5c(-c6cscc6C)cc(c6cc(-c7cscc7C)c7nc(C(F)(F)C(F)(F)C(F)(F)F)nc1c7c26)c3c45
emission maximum (in C1CCOC1): 551 nm

SMILES: N#Cc1ncc(-c2c3ccccc3c(-c3cnc(C#N)nc3)c3ccccc23)cn1
emission maximum (in CCO): 520 nm | emission maximum (in ClCCl): 464 nm

SMILES: COc1ccc(/C=C/c2nc(N3CCOCC3)c3c([n+]2[O-])CCCC3)cc1
emission maximum (in ClCCl): 533 nm

SMILES: CCOC(=O)CSc1nc(-c2ccccc2)c(C)c(C#N)c1C#N
emission maximum (in C1COCCO1): 414 nm | emission maximum (in CC#N): 426 nm | emission maximum (in CCO): 434 nm | emission maximum (in CCOC(C)=O): 421 nm | emission maximum (in ClC(Cl)Cl): 435 nm | emission maximum (in c1ccccc1): 421 nm

SMILES: CCCCCCCCN1c2ccc(C#Cc3cc(C(F)(F)F)cc(C(F)(F)F)c3)cc2Sc2cc(C=O)ccc21
emission maximum (in C1CCOC1): 514 nm | emission maximum (in CC#N): 532 nm | emission maximum (in CCCCCC): 491 nm | emission maximum (in CO): 517 nm | emission maximum (in CS(C)=O): 540 nm | emission maximum (in Cc1ccccc1): 508 nm | emission maximum (in ClC(Cl)Cl): 529 nm

SMILES: CN(C)c1ccc(C#Cc2ccccc2)cc1
emission maximum (in C1CCCCC1): 344.99 nm | emission maximum (in C1CCOC1): 386 nm | emission maximum (in C1COCCO1): 372.49 nm | emission maximum (in CC1CCCO1): 377.5 nm | emission maximum (in CC#N): 415.51 nm | emission maximum (in CC(C)=O): 410.49 nm | emission maximum (in CC(C)CC(C)(C)C): 342.99 nm | emission maximum (in CC(C)O): 365 nm | emission maximum (in CCCCCCCCCCCCCCCC): 346.98 nm | emission maximum (in CCCCCCCCCCCCCCCCCl): 360.49 nm | emission maximum (in CCOC(C)=O): 382.5 nm | emission maximum (in CCOCC): 368.5 nm | emission maximum (in CN(C)C=O): 418.5 nm | emission maximum (in CO): 372 nm | emission maximum (in CS(C)=O): 423.5 nm | emission maximum (in Cc1ccccc1): 366.01 nm

SMILES: COc1ccc(/C=C/C(F)(F)F)c(N)c1
emission maximum (in C1CCOC1): 410 nm

SMILES: Nc1ccccc1C(=O)O
emission maximum (in C1CCCCC1): 387 nm | emission maximum (in C1COCCO1): 395 nm | emission maximum (in CC#N): 397 nm | emission maximum (in CC(C)=O): 394 nm | emission maximum (in CCO): 407 nm | emission maximum (in CO): 406 nm | emission maximum (in CS(C)=O): 400 nm | emission maximum (in O): 400 nm and 397 nm | emission maximum (in OCC(F)(F)F): 423 nm | emission maximum (in c1ccccc1): 394 nm

SMILES: O=C(c1ccc(-n2c3ccccc3c3ccccc32)cc1)c1ccc(-n2c3ccccc3c3ccccc32)cc1
emission maximum (in Cc1ccccc1): 438 nm | emission maximum (in O=P(c1ccccc1)(c1ccccc1)c1ccccc1Oc1ccccc1P(=O)(c1ccccc1)c1ccccc1): 444 nm

SMILES: CNc1ccc(/C=C/C#N)cc1
emission maximum (in C1CCCCC1): 368 nm | emission maximum (in C1CCOC1): 419 nm | emission maximum (in C1COCCO1): 399 nm | emission maximum (in CC1CCCCC1): 391 nm | emission maximum (in CC#N): 421 nm | emission maximum (in CC(C)O): 408 nm | emission maximum (in CCO): 414 nm | emission maximum (in CO): 423 nm | emission maximum (in ClC(Cl)Cl): 404 nm | emission maximum (in O): 445 nm

SMILES: [NH3+]c1ccc2ccc([O-])cc2c1
emission maximum (in O): 425 nm

SMILES: C=Cc1ccc(OC)cc1
emission maximum (in C1CCCCC1): 322 nm | emission maximum (in CC#N): 323 nm

SMILES: CN(C)c1ccc(C(=O)Nc2ccc(Cl)cc2)cc1
emission maximum (in C1CCCCC1): 435 nm | emission maximum (in C1CCOC1): 490 nm | emission maximum (in CC#N): 498 nm | emission maximum (in CCOCC): 481 nm

SMILES: COC(=O)/C(C#N)=c1/cc/c(=c2/cc/c(=C(\C#N)C(=O)OC)s2)s1
emission maximum (in Cc1ccccc1): 601 nm

SMILES: CC(C)(C)C1CCC(=CS/C=C/c2ccc(-c3ccc(/C=C/SC=C4CCC(C(C)(C)C)CC4)cc3)cc2)CC1 (configuration not stated)
emission maximum (in ClCCl): 432 nm

SMILES: CCCCCCn1c(=O)c2c3[nH]c4ccccc4[nH]c3c3c(=O)n(CCCCCC)c(=O)c3c2c1=O
emission maximum (in ClCCl): 641 nm

SMILES: Cc1ccc(-c2ccc(-c3ccc(-c4ccc(-c5ccc(C)cc5)cc4)c(/C(=C(/c4ccccc4)c4cc(-c5ccc(-c6ccc(C)cc6)cc5)ccc4-c4ccc(-c5ccc(C)cc5)cc4)c4ccccc4)c3)cc2)cc1
emission maximum (in C1CCOC1): 498 nm

SMILES: FC(F)(F)c1ccc(-n2c(-c3ccc(N(c4ccc(-c5ccc(N(c6ccc(-c7nc8c9ccccc9c9ccccc9c8n7-c7ccc(C(F)(F)F)cc7)cc6)c6ccc(-c7nc8c9ccccc9c9ccccc9c8n7-c7ccc(C(F)(F)F)cc7)cc6)cc5)cc4)c4ccc(-c5nc6c7ccccc7c7ccccc7c6n5-c5ccc(C(F)(F)F)cc5)cc4)cc3)nc3c4ccccc4c4ccccc4c32)cc1
emission maximum (in ClCCl): 442 nm

SMILES: Fc1ccc(C#Cc2nc(C#Cc3ccc(F)cc3)c(C#Cc3ccc(F)cc3)c(C#Cc3ccc(F)cc3)c2C#Cc2ccc(F)cc2)cc1
emission maximum (in ClCCl): 436 nm

SMILES: CCCCC1(CCCC)c2cc(C#Cc3ccc4ccc5cccc6ccc3c4c56)ccc2-c2ccc(N(c3ccccc3)c3ccccc3)cc21
emission maximum (in C1CCCCC1): 436 nm | emission maximum (in C1CCOC1): 498 nm | emission maximum (in CC#N): 557 nm | emission maximum (in CCOC(C)=O): 490 nm | emission maximum (in CN(C)C=O): 565 nm | emission maximum (in Cc1ccccc1): 449 nm | emission maximum (in ClC(Cl)Cl): 486 nm | emission maximum (in ClCCl): 516 nm

Continued, values first:

emission maximum (in C1CCOC1): 518 nm | emission maximum (in CC#N): 521 nm | emission maximum (in CCO): 516 nm | emission maximum (in CS(C)=O): 549 nm
SMILES: CCOC(=O)c1ccccc1-c1c2ccc(=O)cc-2oc2cc(OC(=O)[C@H](CSCc3ccc(C)cc3)NC(=O)OC(C)(C)C)ccc12

emission maximum (in ClCCl): 417 nm
SMILES: CCOC(=O)c1c(-c2c(Cl)c3cc(C)ccc3oc2=O)nn(-c2ccccc2)c1C(=O)OCC

emission maximum (in CC#N): 424 nm | emission maximum (in ClCCl): 426 nm
SMILES: COc1ccc(-c2cc3c(ccc(=O)n3C)s2)cc1

emission maximum (in C1CCCCC1): 387 nm
SMILES: CB1C=Cc2ccc3ccccc3c2N1c1ccccc1

emission maximum (in ClC(Cl)Cl): 454 nm
SMILES: CC(=C(C#Cc1ccccc1)C#Cc1ccccc1)c1ccc(C(C)=C(C#Cc2ccccc2)C#Cc2ccccc2)cc1

emission maximum (in ClCCl): 552 nm
SMILES: COC(=O)C1CCN(c2ccc3c(N4CCCCC4)c4ccc(=[N+]5CCC(C(=O)OC)CC5)cc-4oc3c2)CC1 (configuration not stated)

emission maximum (in CC#N): 480 nm | emission maximum (in CO): 500 nm | emission maximum (in ClCCl): 481 nm
SMILES: COc1ccc(O)c(-c2[nH]c(=O)n3c2-c2ccccc2C3=O)c1

emission maximum (in ClCCl): 366 nm
SMILES: c1ccc2c(c1)ccc1c3ccccc3ccc21

emission maximum (in ClCCl): 446 nm
SMILES: CCCCn1c(-c2ccc(-c3nnc(-c4ccccc4)o3)cc2)nc2c3ccccc3c3ccccc3c21

emission maximum (in ClCCl): 400 nm
SMILES: CCOC(=O)c1c(-c2cc3ccccc3oc2=O)nn(-c2ccc(Br)cc2)c1C(=O)OCC

emission maximum (in ClC(Cl)Cl): 473 nm
SMILES: CCCC1(CCC)c2cc(C=C(C#Cc3ccccc3)C#Cc3ccccc3)ccc2-c2ccc(C=C(C#Cc3ccccc3)C#Cc3ccccc3)cc21

emission maximum (in CC#N): 505 nm
SMILES: COc1ccccc1-c1nc2c([nH]1)C1=CC(=O)S[C@]1(C)[C@@]1(C)SC(=O)C=C21

emission maximum (in O): 428 nm
SMILES: O=C([O-])c1cc2c(ccc3ccccc32)oc1=O

emission maximum (in ClCCl): 480 nm
SMILES: Cc1ccc(C#Cc2ccc3nc4ccc(C#Cc5ccc(C)cc5)cn4c(=O)c3c2)cc1

emission maximum (in ClCCl): 367 nm
SMILES: COc1ccc(-c2cc(-c3ccc(C(F)(F)F)cc3)nn2C)cc1
